Experiments:
[1] = tested on: antibody against 3kPZS (polyclonal antiserum L286); assay: ELISA cross-reactivity of the antiserum; assay type: binding, rabbit
Description: Plates were coated with polyclonal goat anti-rabbit IgG (Sigma; product code R2004) by adding 120 μL of antibody diluted in 0.05 M potassium phosphate buffer, pH 7.4 to each well and incubating overnight at 4° C. The plates were blocked by addition of 100 μL of 3% BSA in 0.1 M potassium phosphate buffered saline and storage at 4° C. for at least 12 h.
Non-specific binding (NSB) and maximum binding (B0) were measured in separate wells. Water washings, extracts, or HPLC fractions were diluted 20 times in assay buffer and 100 μL added to wells in duplicate; 50 μL of the diluted enzyme label (1:2000) was added to all wells and 50 μL of primary antibody (1:500,000) was added to all but NSB wells. Plates were incubated for 2 h at room temperature in a humid chamber. Then, after rinsing three times with wash buffer, 200 μL Ellmans reagent (4.3 mg DTNB, and 4 mg acetyl thiocholine in 20 mL 0.02 M potassium phosphate buffer) was added to each well. The plates were sealed and incubated overnight at room temperature in a humid chamber.
To test the cross-reactivity of the antibody to structurally related compounds, serial dilutions of ACA, PZ, PZS, CA, 3kACA, and 3kPZ were assayed alongside the 3kPZS standard.

[2] = tested on: olfactory organs of adult females; assay: electro-olfactography (EOG); assay type: in vivo, sea lamprey
Excerpt: The response magnitude is expressed as the percentage of responses to 10^−5 M L-arginine, the standard odorant. Vertical bars, one standard deviation.

[3] = diethyl ether extraction from buffers of different pH; assay type: physicochemical; conditions: pH 4
Description: A trial was carried out in which a mixture of synthetic 3kPZS and 3kACA was dissolved in buffers of different pH and then extracted with diethyl ether. […] Based on this observation, an extract from 1 L of water that had been conditioned by a spermiating male was redissolved in 100 μL methanol and 900 μL of 0.05 M sodium acetate buffer, pH 4.0. This was extracted four times with 3 mL diethyl ether. The residue was then separated by HPLC as described above and the fractions assayed with the ELISA. Some of the extract which had not been treated with diethyl ether was treated in the same way. After these separations had been performed, standard synthetic 3kACA, 3kPZS and 3kPZ (200 μg each) were run on the column under identical conditions.

[4] = long-term storage of natural compound in ethanol; assay type: physicochemical; conditions: 1 mg/mL in ethanol at −20° C. for over one year
Excerpt: In Example 1, only a small supply of synthetic 3kPZS had been produced by enzymatic oxidation of the 3α-hydroxyl group of PZS. This restricted the number of comparisons that could be made between the natural and synthetic 3kPZS. This example completes these studies. This example confirms that both synthetic and natural 3kPZS have the same chromatographic properties and behave in the same way when treated with 3α-HSD and sulfatase. […] The reason for this has not been fully established. However, the natural compound that was used in this example had been stored at 1 mg/mL in ethanol at −20° C. for over one year, whereas the synthetic compound had been made up freshly. The possibility is that the sulfate group is unstable in long-term storage.

ovulated females = assay: two-choice maze behavioral test (preference and searching); assay type: in vivo, sea lamprey, Petromyzon marinus
Excerpt: Behavioral tests confirmed that the odor of spermiating males influences the distribution and locomotor activities of ripe females in a two-choice maize as follows. Animals were classified as spermiating males and ovulated females if milt and eggs, respectively, could be expressed by manual pressure, or otherwise as non-spermiating males and pre-ovulatory females, and used as either test subjects or odor donors in a flow through (0.07 m/s) maze (L 4.6 m×W 1.2 m) with plywood bottom, sides, and a partition in the middle which extended 2.4 m from the upstream end, and with plastic meshes blocking fish movement at both the upstream and downstream ends. Odor donors were held above the upstream mesh. Between 0700 and 1700 h, a single test subject was acclimated for 10 min in the maze, and its behavior video recorded for 20 min. Then, 5 lampreys (all of one sex and maturity) were introduced into the mesh chamber on a randomly chosen side, and behavior of test subjects recorded for another 20 min. When washings were used, a spermiating male was held in 10 L of water for four hours and the water introduced into the odor chamber at 75 mL/min. Naïve observers scored videotapes for the total time spent in each side before (Be and Bc) and after (Ae and Ac) odorant introduction. The scores were used to calculate an index of preference: I=(Ae/(Ae+Be))−(Ac/(Ac+Bc)). A similar index was computed for searching behaviors which involved pacing back and forth across the upstream barrier, increased swimming speed, and rapid beating of the tail.
When tested in a two-choice maze, ovulated females (but not males or pre-ovulatory females) spent more time in the compartment scented with washings from spermiating males (Table 1). There was no preference of ovulated females for washings of pre-spermiating males or females.
From this we estimated that in the two-choice maze experiments with live males, the pheromone reached a concentration between 0.1 and 0.2 ηM. Therefore, the converted PS was tested in the two-choice maze at a final concentration of 0.17 ηM.

[5] = weight for weight basis, compared with 3kPZS
[6] = ovulated females, final concentration of 0.17 ηM
[7] = ovulated females, flow-through maze, washings introduced at 75 mL/min, PP at final concentration of 0.17 ηM
[8] = ovulated females, searching behavior

With C[C@H](CCCO)[C@H]1CC[C@H]2[C@@H]3[C@H](O)C[C@H]4CC(=O)CC[C@]4(C)[C@H]3C[C@H](O)[C@]12C [3kPZ, 7α,12α,24-trihydroxy-5α-cholan-3-one] the “cross-reaction with the antiserum” value ([1]; relative to 3kPZS standard) was 100% and the “cross-reaction with the antiserum” value [1, 5] was “equally well”.

With C[C@H](CCCOS(=O)(=O)O)[C@H]1CC[C@H]2[C@@H]3[C@H](O)C[C@H]4C[C@H](O)CC[C@]4(C)[C@H]3C[C@H](O)[C@]12C [PZS, 3α,7α,12α,24-tetrahydroxy-5α-cholan-24-sulfate] the “cross-reaction with the antiserum” value ([1]; relative to 3kPZS standard) was 1.6%.

In the case of CC(CCCOS(=O)(=O)O)C1CCC2C3C(O)CC4CC(=O)CCC4(C)C3CC(O)C12C (stereo not drawn) [3kPZS, 7α,12α,24-trihydroxy-5α-cholan-3-one-24-sulfate], the “olfactory stimulation by EOG” value ([2]; adult females) is reported as “highly stimulatory”, the detection threshold ([2]; worked out from release rate and EOG detection of male washings after dilution of 10^6 times) is reported as “about 10^−12 molar” and the “extraction into the diethyl ether phase” value [3] is reported as “not”. For the same compound, the “stability in storage” value [4] was “appeared to have broken down to 3kPZ”, the “level at which it attracts ovulated females” value (ovulated females; in words) was “sub-nanomolar” and the “searching behavior in the scented side” value (ovulated females; [6]) was “increased searching behavior”. The “time spent in the scented side” value (ovulated females; [6]) was “spent a longer time”, the “No. animals that spent more time on side that was: Scented” value (ovulated females; [7]) was 8 and the “No. animals that spent more time on side that was: Unscented” value (ovulated females; [7]) was 0. For the same compound, the “No. animals that spent more time searching on side that was: Scented” value (ovulated females; [8]) was 6 and the “No. animals that spent more time searching on side that was: Unscented” value (ovulated females; [8]) was 0.

For C[C@H](CCC(=O)O)[C@H]1CC[C@H]2[C@@H]3[C@H](O)C[C@H]4CC(=O)CC[C@]4(C)[C@H]3C[C@H](O)[C@]12C [3kACA, 7α,12α-dihydroxy-5α-cholan-3-one-24-oic acid], the “cross-reaction with the antiserum” value ([1]; relative to 3kPZS standard) was 100%, the “cross-reaction with the antiserum” value [1, 5] was “equally well” and the “extraction into the diethyl ether phase” value [3] was “could be extracted into the diethyl ether phase”.

— patent US6881729B2, “Bile compound and method of controlling behavior of lampreys therewith” (Board of Trustees of Michigan State University, priority 2001, dated 2005)
